Data: US20250188069A1, “COMPOUNDS AND METHODS FOR DEGRADING CASEIN KINASE 1 ALPHA” (PIN THERAPEUTICS, INC., priority 2022, published 2025)
Structures can show the parent of a compound that is named as a salt. Where two headings read alike, the source gives them in different places.

Key:
MV-4-11 cells = assay: AML cell viability assay (RealTime-Glo); assay type: cell-based; conditions: Homo sapiens, read-out: Cell viability classification
CK1α = CK1α (Homo sapiens, UniProt P48729+Q96SW2); assay: CK1α degradation, Jess assay in MV-4-11 cells; assay type: cell-based; design: CK1α levels were determined in MV-4-11 cells using Jess (Protein Simple); host or cells: MV-4-11; dose or concentration left out as unconfirmed; conditions: MV4-11, % reduction of CK1α compared to DMSO, MV-4-11 cells for 16 hours, normalized to β-actin, read-out: CK1α degradation classification
Chain of CK1α (P48729 whole entry): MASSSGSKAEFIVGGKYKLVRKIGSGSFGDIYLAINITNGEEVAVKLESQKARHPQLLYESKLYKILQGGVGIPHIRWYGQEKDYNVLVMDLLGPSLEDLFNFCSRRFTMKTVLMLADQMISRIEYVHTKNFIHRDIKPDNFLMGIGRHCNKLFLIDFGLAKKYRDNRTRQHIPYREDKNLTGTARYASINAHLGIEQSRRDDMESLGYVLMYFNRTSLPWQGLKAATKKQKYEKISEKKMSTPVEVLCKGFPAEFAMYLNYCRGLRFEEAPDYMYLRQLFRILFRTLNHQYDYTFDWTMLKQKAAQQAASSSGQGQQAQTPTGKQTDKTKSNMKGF
Chain of CK1α (Q96SW2 whole entry): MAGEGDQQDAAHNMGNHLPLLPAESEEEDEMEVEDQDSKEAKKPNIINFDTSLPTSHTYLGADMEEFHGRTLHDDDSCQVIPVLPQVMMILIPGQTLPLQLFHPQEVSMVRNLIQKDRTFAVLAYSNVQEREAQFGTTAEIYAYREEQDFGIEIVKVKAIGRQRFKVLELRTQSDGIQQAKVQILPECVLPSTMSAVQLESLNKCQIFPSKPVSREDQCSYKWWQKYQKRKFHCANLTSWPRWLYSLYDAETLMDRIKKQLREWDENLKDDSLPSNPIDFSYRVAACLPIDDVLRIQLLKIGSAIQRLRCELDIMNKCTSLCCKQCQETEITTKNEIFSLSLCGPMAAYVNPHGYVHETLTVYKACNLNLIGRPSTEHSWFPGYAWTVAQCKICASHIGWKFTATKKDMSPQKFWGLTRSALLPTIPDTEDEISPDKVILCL
Chain of CK1α (Q16531 whole entry partner): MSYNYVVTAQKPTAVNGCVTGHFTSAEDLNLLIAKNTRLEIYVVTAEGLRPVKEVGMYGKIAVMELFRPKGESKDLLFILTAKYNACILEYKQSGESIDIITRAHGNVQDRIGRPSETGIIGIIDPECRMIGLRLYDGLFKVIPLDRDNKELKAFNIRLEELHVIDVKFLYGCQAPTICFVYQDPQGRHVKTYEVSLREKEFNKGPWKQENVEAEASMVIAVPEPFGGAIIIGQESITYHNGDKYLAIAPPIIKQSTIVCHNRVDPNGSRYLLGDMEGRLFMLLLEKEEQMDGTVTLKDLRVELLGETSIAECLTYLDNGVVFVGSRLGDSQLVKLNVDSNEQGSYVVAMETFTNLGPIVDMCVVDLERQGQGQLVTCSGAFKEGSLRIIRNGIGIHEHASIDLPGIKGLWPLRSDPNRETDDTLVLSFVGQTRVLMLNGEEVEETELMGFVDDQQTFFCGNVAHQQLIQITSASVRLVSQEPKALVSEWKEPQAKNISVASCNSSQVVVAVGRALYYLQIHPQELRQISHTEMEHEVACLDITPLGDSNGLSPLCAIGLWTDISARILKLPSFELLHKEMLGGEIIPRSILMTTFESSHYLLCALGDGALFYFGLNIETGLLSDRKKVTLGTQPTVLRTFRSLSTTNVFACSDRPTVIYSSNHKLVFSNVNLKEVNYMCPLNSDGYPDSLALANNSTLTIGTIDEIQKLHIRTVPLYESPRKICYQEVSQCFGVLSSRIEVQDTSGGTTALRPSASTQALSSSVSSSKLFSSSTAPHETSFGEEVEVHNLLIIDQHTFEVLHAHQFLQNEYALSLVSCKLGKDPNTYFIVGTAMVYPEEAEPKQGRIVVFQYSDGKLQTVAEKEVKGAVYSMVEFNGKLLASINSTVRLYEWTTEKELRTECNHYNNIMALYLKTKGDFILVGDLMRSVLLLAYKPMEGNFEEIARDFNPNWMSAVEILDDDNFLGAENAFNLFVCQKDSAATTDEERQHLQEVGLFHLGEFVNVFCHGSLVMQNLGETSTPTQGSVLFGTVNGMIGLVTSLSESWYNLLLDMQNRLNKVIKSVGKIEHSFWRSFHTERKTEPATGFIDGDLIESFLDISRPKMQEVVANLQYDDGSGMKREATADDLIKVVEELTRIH
Experimental: MM.1S and NCCIT cells were obtained from ATCC and grown in RPMI-1640 supplemented with 10% FBS. MV-4-11 cells were obtained from ATCC and grown in IMDM supplemented with 10% FBS. The cells were maintained at 37° C. under 5% CO2.
Compounds of the present disclosure was added to cells (final DMSO concentration of 0.1%) and incubated for 16 hours. CK1α levels were determined in MV-4-11 cells using Jess (Protein Simple). Briefly, whole cell lysates were prepared in lysis buffer (1×RIPA buffer [Thermo, 89900], 2 mM MgCl2 [Sigma, M1028], 0.05% Benzonase [Sigma, E1014], 1× Pierce protease inhibitor tablets EDTA-free [Thermo, A32965]). 6-20 μg of the lysates were analyzed using Jess with antibodies against CK1α (Abcam, ab108296) and β-actin (R&D Systems, MAB8929). Protein levels were normalized to β-actin levels. DC50 values were obtained using four-parameter non-linear regressions using Prism (GraphPad).
The efficacy of CK1α degradation of a part of compounds of the present disclosure was determined by treating MV-4-11 cells at […] (final DMSO concentration of 0.1%) for 16 hours. CK1α levels were determined using Jess and normalized to β-actin levels. The compounds are classified based on amount of CK1α degradation (% reduction of CK1α compared to DMSO) as follows. • A: Degradation is greater than or equal to 75%; • B: Degradation is less than […] & greater than or equal to 50%; • C: Degradation is less than […]; • ND: not determined.

[1] = MV4-11, IC50 class, MV-4-11 cells, RealTime-Glo after 44 hrs of treatment (TABLE 1)

Row | SMILES | IC50 (MV-4-11 cells; [1]) [nM] | Dmax (CK1α) [%] | IC50 (MV-4-11 cells; MV4-11, 44 h) [nM]
1 | CCCCCN(c1cccc2c1CN(C1CCC(=O)NC1=O)C2=O)[C@@H]1CC[C@H](N)C1 (stereo partly drawn) [Compound 324, 3-(4-(((1R,3S)-3-aminocyclopentyl)(pentyl)amino)-1-oxoisoindolin-2-yl)piperidine-2,6-dione] | < 100 | > 75 | 
2 | CCCCCN(CCCCNC)c1cccc2c1CN(C1CCC(=O)NC1=O)C2=O (stereo not shown) [Compound 80, 3-(4-((4-(methylamino)butyl)(pentyl)amino)-1-oxoisoindolin-2-yl)piperidine-2,6-dione.Hydrochloride] | < 100 | > 75 | 
3 | CCCCCN(c1cccc2c1CN(C1CCC(=O)NC1=O)C2=O)[C@H]1CC[C@H](CN)CC1 (stereo partly drawn) [Compound 90, 3-(4-(((1R,4R)-4-(aminomethyl)cyclohexyl)(pentyl)amino)-1-oxoisoindolin-2-yl)piperidine-2,6-dione hydrochloride] | < 100 | > 75 | 
4 | CCCCCN(c1cccc2c1CN(C1CCC(=O)NC1=O)C2=O)[C@H]1CC[C@@H](CN)CC1 (stereo partly drawn) [Compound 89, 3-(4-(((1S,4S)-4-(aminomethyl)cyclohexyl)(pentyl)amino)-1-oxoisoindolin-2-yl)piperidine-2,6-dione hydrochloride] | < 100 | > 75 | 
5 | CC(C)CCCCCN(CCCCN)c1cccc2c1CN(C1CCC(=O)NC1=O)C2=O (stereo not shown) [Compound 52, 3-(4-((4-aminobutyl)(6-methylheptyl)amino)-1-oxoisoindolin-2-yl)piperidine-2,6-dione] | 100 to 1000 | > 75 | 
6 | CCCCCCN(CCCCN)c1cccc2c1CN(C1CCC(=O)NC1=O)C2=O (stereo not shown) [Compound 48, 3-(4-((4-aminobutyl)(hexyl)amino)-1-oxoisoindolin-2-yl)piperidine-2,6-dione] | < 100 | > 75 | 
7 | CCCN(CCCCCN)c1cccc2c1CN(C1CCC(=O)NC1=O)C2=O (stereo not shown) [Compound 57, 3-(4-((5-aminopentyl)(propyl)amino)-1-oxoisoindolin-2-yl)piperidine-2,6-dione] | < 100 | > 75 | 
8 | CCCCCN(c1cccc2c1CN(C1CCC(=O)NC1=O)C2=O)[C@H]1CC[C@@H](N)CC1 (stereo partly drawn) [Compound 87, 3-(4-(((1S,4S)-4-aminocyclohexyl)(pentyl)amino)-1-oxoisoindolin-2-yl)piperidine-2,6-dione hydrochloride] | < 100 | > 75 | 
9 | NC[C@H]1CC[C@@H](N(CCC2CC2)c2cccc3c2CN(C2CCC(=O)NC2=O)C3=O)CC1 (stereo partly shown) [Compound 358, 3-(4-(((1s,4s)-4-(aminomethyl)cyclohexyl)(2-cyclopropylethyl)amino)-1-oxoisoindolin-2-yl)piperidine-2,6-dione] | < 100 | > 75 | 
10 | NCCCCCCN(CCCCN)c1cccc2c1CN(C1CCC(=O)NC1=O)C2=O (stereo not shown) [Compound 60, 3-(4-((4-aminobutyl)(6-aminohexyl)amino)-1-oxoisoindolin-2-yl)piperidine-2,6-dione] | < 100 | > 75 | 
11 | C/C=C\CN(CCCCN)c1cccc2c1CN(C1CCC(=O)NC1=O)C2=O (stereo not shown) [Compound 69, (Z)-3-(4-((4-aminobutyl)(but-2-en-1-yl)amino)-1-oxoisoindolin-2-yl)piperidine-2,6-dione] | 100 to 1000 | 50 to 7500 | 
12 | CCCCN(C/C=C\CN)c1cccc2c1CN(C1CCC(=O)NC1=O)C2=O (stereo not shown) [Compound 67, (Z)-3-(4-((4-aminobut-2-en-1-yl)(butyl)amino)-1-oxoisoindolin-2-yl)piperidine-2,6-dione] | < 100 | > 75 | 
13 | CCCCCN(CCCCNC(C)=O)c1cccc2c1CN(C1CCC(=O)NC1=O)C2=O (stereo not shown) [Compound 82, N-(4-((2-(2,6-dioxopiperidin-3-yl)-1-oxoisoindolin-4-yl)(pentyl)amino)butyl)acetamide] | < 100 | 50 to 7500 | 
14 | NCCCCCN(CCCCN)c1cccc2c1CN(C1CCC(=O)NC1=O)C2=O (stereo not shown) [Compound 55, 3-(4-((4-aminobutyl)(5-aminopentyl)amino)-1-oxoisoindolin-2-yl)piperidine-2,6-dione dihydrochloride] | 100 to 1000 | > 75 | 
15 | NCCCCN(CCCCCCO)c1cccc2c1CN(C1CCC(=O)NC1=O)C2=O (stereo not shown) [Compound 56, 3-(4-((4-aminobutyl)(6-hydroxyhexyl)amino)-1-oxoisoindolin-2-yl)piperidine-2,6-dione] | 100 to 1000 | 50 to 7500 | 
16 | NCCCCN(CCCCCO)c1cccc2c1CN(C1CCC(=O)NC1=O)C2=O (stereo not shown) [Compound 51, 3-(4-((4-aminobutyl)(5-hydroxypentyl)amino)-1-oxoisoindolin-2-yl)piperidine-2,6-dione] | 100 to 1000 | 50 to 7500 | 
17 | CCCCN(CC#CCN)c1cccc2c1CN(C1CCC(=O)NC1=O)C2=O (stereo not shown) [Compound 115, 3-(4-((4-aminobut-2-yn-1-yl)(butyl)amino)-1-oxoisoindolin-2-yl)piperidine-2,6-dione] | > 1000 | 50 to 7500 | 
18 | NC[C@H]1CC[C@@H](N(CCCC2CCOCC2)c2cccc3c2CN(C2CCC(=O)NC2=O)C3=O)CC1 (stereo partly shown) [Compound 333, 3-(4-(((1s,4s)-4-(aminomethyl)cyclohexyl)(3-(tetrahydro-2H-pyran-4-yl)propyl)amino)-1-oxoisoindolin-2-yl)piperidine-2,6-dione] | < 100 | > 75 | 
19 | CCCCCN(CCCCN)c1cccc2c1CN(C1CCC(=O)NC1=O)C2=O (stereo not shown) [Compound 47, 3-(4-((4-aminobutyl)(pentyl)amino)-1-oxoisoindolin-2-yl)piperidine-2,6-dione] |  | > 75 | < 100
20 | CCCCCN(c1cccc2c1CN(C1CCC(=O)NC1=O)C2=O)[C@@H]1CC[C@@H](N)C1 (stereo partly drawn) [Compound 323, 3-(4-(((1R,3R)-3-aminocyclopentyl)(pentyl)amino)-1-oxoisoindolin-2-yl)piperidine-2,6-dione] | < 100 | > 75 | 
21 | CCCN(CCCCNC(C)=O)c1cccc2c1CN(C1CCC(=O)NC1=O)C2=O (stereo not shown) [Compound 50, N-(4-((2-(2,6-dioxopiperidin-3-yl)-1-oxoisoindolin-4-yl)(propyl)amino)butyl)acetamide] | < 100 | > 75 | 
22 | CCCCN(CCCCN)c1cccc2c1CN(C1CCC(=O)NC1=O)C2=O (stereo not shown) [Compound 46, 3-(4-((4-aminobutyl)(butyl)amino)-1-oxoisoindolin-2-yl)piperidine-2,6-dione] | < 100 | > 75 | 
23 | CCCN(CCCCN)c1cccc2c1CN(C1CCC(=O)NC1=O)C2=O (stereo not shown) [Compound 4, 3-(4-((4-aminobutyl)(propyl)amino)-1-oxoisoindolin-2-yl)piperidine-2,6-dione] | < 100 | > 75 | 
24 | C/C=C/CN(CCCCN)c1cccc2c1CN(C1CCC(=O)NC1=O)C2=O (stereo not shown) [Compound 68, (E)-3-(4-((4-aminobutyl)(but-2-en-1-yl)amino)-1-oxoisoindolin-2-yl)piperidine-2,6-dione] | < 100 | > 75 | 
25 | N[C@H]1CC[C@H](N(CCCc2ccccc2)c2cccc3c2CN(C2CCC(=O)NC2=O)C3=O)CC1 (stereo partly shown) [Compound 251, 3-(4-(((1r,4r)-4-aminocyclohexyl)(3-phenylpropyl)amino)-1-oxoisoindolin-2-yl)piperidine-2,6-dione hydrochloride] | < 100 | > 75 | 
26 | CCCN(CCCCC(=O)NC)c1cccc2c1CN(C1CCC(=O)NC1=O)C2=O (stereo not shown) [Compound 63, 5-((2-(2,6-dioxopiperidin-3-yl)-1-oxoisoindolin-4-yl)(propyl)amino)-N-methylpentanamide] | < 100 | > 75 | 
